Some results are limits rather than exact numbers.

The first assay has as its target T1, CDK8 (Homo sapiens (Human), UniProt P49336). Description: LanthaScreen Eu Kinase Binding Assay (competitive kinase binding assay). Particulars: Targeting Ligands of Table 1; displacing the Tracer from the target kinase; read-out: Enzyme IC50. As for the experimental part:
The biological activities of the compounds of the present application can be assessed through a variety of methods known in the art. For example, a kinase competitive binding assay may be used to determine the activity of the compounds of the present application to bind to […]. […] The changes in the signal produced by the reporting ligand when the compound is present relative when the compound is absent are recorded, which are calculated to provide the IC50 of the compound. Compounds of the present application were tested in a competitive kinase binding assay by using commercially available assay system. For example, LanthaScreen® Eu Kinase Binding Assay (Invitrogen™) was used to measure the IC50 of the compounds of the present application in displacing the Tracer from binding to the target kinase, by following the assay protocol from Invitrogen™.
(TR-FRET usually uses a lanthanide donor and a delayed reading to cut background.)
Target sequence in this assay (P49336 whole entry, looked up): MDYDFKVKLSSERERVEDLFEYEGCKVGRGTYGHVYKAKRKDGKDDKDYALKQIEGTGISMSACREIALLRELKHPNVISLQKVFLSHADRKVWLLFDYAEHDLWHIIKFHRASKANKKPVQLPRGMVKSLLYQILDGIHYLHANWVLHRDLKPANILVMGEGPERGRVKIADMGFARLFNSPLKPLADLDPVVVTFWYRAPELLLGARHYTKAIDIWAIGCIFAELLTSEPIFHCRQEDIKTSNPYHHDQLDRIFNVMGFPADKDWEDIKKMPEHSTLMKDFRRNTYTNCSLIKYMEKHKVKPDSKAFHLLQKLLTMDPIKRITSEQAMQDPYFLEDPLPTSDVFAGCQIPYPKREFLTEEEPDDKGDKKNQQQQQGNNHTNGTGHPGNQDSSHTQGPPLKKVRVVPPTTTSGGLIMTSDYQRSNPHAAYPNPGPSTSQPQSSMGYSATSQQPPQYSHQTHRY
Target sequence in this assay (P24863 whole entry partner, looked up): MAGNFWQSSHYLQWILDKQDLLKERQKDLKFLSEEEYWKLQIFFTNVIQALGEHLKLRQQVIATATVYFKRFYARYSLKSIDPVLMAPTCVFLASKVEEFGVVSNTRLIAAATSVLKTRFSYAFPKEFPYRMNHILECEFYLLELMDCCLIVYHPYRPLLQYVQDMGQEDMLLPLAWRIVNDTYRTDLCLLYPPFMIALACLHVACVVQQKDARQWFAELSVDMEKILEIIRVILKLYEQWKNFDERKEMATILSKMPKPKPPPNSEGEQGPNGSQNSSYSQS
For orientation: IC50 means the concentration at which inhibition is half-maximal. For `CN(C)[C@H]1CC[C@@]2(C)C(=CCC3[C@@H]4CC[C@H](c5ccc6ccncc6c5)[C@@]4(C)CC[C@@H]32)C1` (stereo in doubt) [Compound 33, (3S,8R,9S,10R,13S,14S)-17-(isoquinolin-7-yl)-N,N,10,13-tetramethyl-2,3,4,7,8,9,10,11,12,13,14,15,16,17-tetradecahydro-1H-cyclopenta[a]phenanthren-3-amine], the IC50 is < 0.1 µM. On the same count and under the same terms, under `C[C@]12CC[C@H](O)CC1=CC[C@@H]1[C@@H]2CC[C@]2(C)C(c3ccc4ccncc4c3)=CC[C@@H]12` [Compound 1, (3S,8R,9S,10R,13S,14S)-17-(isoquinolin-7-yl)-10,13-dimethyl-2,3,4,7,8,9,10,11,12,13,14,15-dodecahydro-1H-cyclopenta[a]phenanthren-3-ol] stands 0.101 to 0.2 µM; under `C[C@]12CC[C@H](O)C[C@@H]1CC[C@@H]1[C@@H]2CC[C@]2(C)C(c3ccc4ccncc4c3)=CC[C@@H]12` [Compound 2], 0.701 to 2 µM.

Take `C[C@]12CC[C@H](O)CC1=CC[C@@H]1[C@@H]2CC[C@]2(C)C(c3ccc4cnncc4c3)=CC[C@@H]12` [Compound 3]: the half-maximal inhibitory concentration (IC50) was > 6 µM. Same read-out and setting: under `C[C@]12CC[C@H](O)CC1=CC[C@@H]1[C@@H]2CC[C@]2(C)C(c3ccc4nc(N)ncc4c3)=CC[C@@H]12` [Compound 4] stands 2 to 6 µM. On to `C[C@]12CC[C@H](O)CC1=CC[C@@H]1[C@@H]2CC[C@]2(C)C(c3ccc4[nH]ncc4c3)=CC[C@@H]12` [Compound 6], for which the IC50 was > 6 µM. On the same count and under the same terms, with `C[C@]12CC[C@H](O)CC1=CC[C@@H]1[C@@H]2CC[C@]2(C)C(c3ccc4cn[nH]c4c3)=CC[C@@H]12` [Compound 7] the figure was > 6 µM; with `C[C@]12CC[C@H]3[C@@H](CC=C4C[C@@H](O)CC[C@@]43C)[C@@H]1CC[C@@H]2c1ccc2ccncc2c1` [Compound 8a, (3S,8S,9S,10R,13S,14S,17S)-17-(isoquinolin-7-yl)-10,13-dimethyl-2,3,4,7,8,9,10,11,12,13,14,15,16,17-tetradecahydro-1H-cyclopenta[a]phenanthren-3-ol], < 0.1 µM; with `C[C@]12CC[C@H](O)C[C@@H]1CC[C@@H]1[C@@H]2CC[C@]2(C)[C@@H](c3ccc4ccncc4c3)CC[C@@H]12` [Compound 8b], 0.201 to 0.3 µM.

Turning to `C[C@]12CC[C@H]3[C@@H](CC=C4C[C@@H](O)CC[C@@]43C)[C@@H]1CC[C@@H]2c1ccc2cnncc2c1` [Compound 9], the IC50 is > 6 µM. Same read-out and setting: with `C[C@]12CC[C@H]3[C@@H](CC=C4C[C@@H](O)CC[C@@]43C)[C@@H]1CC[C@@H]2c1ccc2nc(N)ncc2c1` [Compound 10] the figure was 0.101 to 0.2 µM; with `C[C@]12CC[C@H]3[C@@H](CC=C4C[C@@H](O)CC[C@@]43C)[C@@H]1CC[C@@H]2c1ccc2c(N)n[nH]c2c1` [Compound 11], 0.301 to 0.7 µM; with `C[C@]12CC[C@H]3[C@@H](CC=C4C[C@@H](O)CC[C@@]43C)[C@@H]1CC[C@@H]2c1ccc2[nH]ncc2c1` [Compound 12], > 6 µM. Still for that read-out and setting: under `C[C@]12CC[C@H]3[C@@H](CC=C4C[C@@H](O)CC[C@@]43C)[C@@H]1CC[C@@H]2c1ccc2cn[nH]c2c1` [Compound 13] stands > 6 µM; under `C[C@]12CC[C@H]3[C@@H](CC=C4C[C@@H](O)CC[C@@]43C)[C@@H]1CC[C@@H]2c1ccc2cnccc2c1` [Compound 14], 2 to 6 µM.

With `CN(C)[C@H]1CC[C@@]2(C)[C@@H](CC[C@@H]3[C@@H]2CC[C@]2(C)[C@@H](c4ccc5ccncc5c4)CC[C@@H]32)C1` [Compound 23, (3S,8R,9S,10S,13S,14S,17S)-(isoquinolin-7-yl)-N,N,10,13-tetramethylhexadecahydro-1H-cyclopenta[a]phenanthren-3-amine], the half-inhibitory concentration (IC50) was < 0.1 µM. The same measure, in the same setting: under `CN(C)[C@@H]1CC[C@@]2(C)[C@@H](CC[C@@H]3[C@@H]2CC[C@]2(C)C(c4ccc5ccncc5c4)=CC[C@@H]32)C1` [Compound 24] stands 0.201 to 0.3 µM. The same measure, in the same setting: with `CN(C)[C@@H]1CC[C@@]2(C)[C@@H](CC[C@@H]3[C@@H]2CC[C@]2(C)[C@@H](c4ccc5ccncc5c4)CC[C@@H]32)C1` [Compound 25] the figure was < 0.1 µM; with `C[C@]12CC[C@H](n3ccnn3)C[C@@H]1CC[C@@H]1[C@@H]2CC[C@]2(C)[C@@H](c3ccc4ccncc4c3)CC[C@@H]12` [Compound 39, 7-((3S,8R,9S,10S,13S,14S,17S)-10,13-dimethyl-3-(1H-1,2,3-triazol-1-yl)hexadecahydro-1H-cyclopenta[a]phenanthren-17-yl)isoquinoline], < 0.1 µM. Same read-out and setting: under `CC(=O)N(C)[C@H]1CC[C@@]2(C)[C@@H](CC[C@@H]3[C@@H]2CC[C@]2(C)[C@@H](c4ccc5ccncc5c4)CC[C@@H]32)C1` [Compound 47, N-((3S,8R,10S,13S,14S,17S)-17-(isoquinolin-7-yl)-10,13-dimethylhexadecahydro-1H-cyclopenta[a]phenanthren-3-yl)-N-methylacetamide] stands < 0.1 µM.

The same assay, now with this note: bifunctional compounds; displacing the Tracer from the target kinase; read-out: Enzyme IC50.
For the compound `CN(C(=O)CCOCCOCCOCCOCCNc1cccc2c1C(=O)N(C1CCC(=O)NC1=O)C2=O)[C@H]1CC[C@]2(C)C3CC[C@]4(C)[C@@H](c5ccc6ccncc6c5)CC[C@H]4C3CC[C@H]2C1` (stereo partly drawn) [Compound I-1, 1-((2-(2,6-dioxopiperidin-3-yl)-1,3-dioxoisoindolin-4-yl)amino)-N-((3S,5S,1&S,13S,14S,17S)-17-(isoquinolin-7-yl)-10,13-dimethylhexadecahydro-1H-cyclopenta[a]phenanthren-3-yl)-N-methyl-3,6,9,12-tetraoxapentadecan-15-amide], the IC50 was in the range of 0.101 to 0.2 µM. For `CN(C(=O)CCOCCOCCNc1cccc2c1C(=O)N(C1CCC(=O)NC1=O)C2=O)[C@H]1CC[C@]2(C)C3CC[C@]4(C)[C@@H](c5ccc6ccncc6c5)CC[C@H]4C3CC[C@H]2C1` (stereo partly drawn) [Compound I-2, 3-(2-(2-((2-(2,6-dioxopiperidin-3-yl)-1,3-dioxoisoindolin-4-yl)amino)ethoxy)ethoxy)-N-((3S,10S,17S)-17-(isoquinolin-7-yl)-10,13-dimethylhexadecahydro-1H-cyclopenta[a]phenanthren-3-yl)-N-methylpropanamide], the concentration for half-maximal inhibition (IC50) was 0.101 to 0.2 µM. Still for that read-out and setting: with `CN(C(=O)CCOCCOCCNc1cccc2c1C(=O)N(C1CCC(=O)NC1=O)C2=O)[C@H]1CC[C@@]2(C)C(CCC3C4CC[C@H](c5ccc6ccncc6c5)C4(C)CCC32)C1` (stereo partly drawn) [Compound I-3, 3-(2-(2-((2-(2,6-dioxopiperidin-3-yl)-1,3-dioxoisoindolin-4-yl)amino)ethoxy)ethoxy)-N-((3S,10S,17S)-17-(isoquinolin-7-yl)-10,13-dimethylhexadecahydro-1H-cyclopenta[a]phenanthren-3-yl)-N-methylpropanamide] the figure was 0.201 to 0.3 µM; with `CN1C(=O)CCC(N2C(=O)c3cccc(NCCOCCOCCOCCOCCC(=O)N(C)[C@H]4CC[C@]5(C)C6CC[C@]7(C)[C@@H](c8ccc9ccncc9c8)CC[C@H]7C6CC[C@H]5C4)c3C2=O)C1=O` (stereo partly drawn) [Compound I-5, N-((3S,5S,10S,13S,14S,17S)-17-(isoquinolin-7-yl)-10,13-dimethylhexadecahydro-1H-cyclopenta[a]phenanthren-3-yl)-N-methyl--((2-(1-methyl-2,6-dioxopiperidin-3-yl)-1,3-dioxoisoindolin-4-yl)amino)-3,6,9,12-tetraoxapentadecan-15-amide], 0.301 to 0.7 µM.

The subject of the next assay is pS727-STAT1 (CDK8 substrate) in HepG2 cells. Description: Western blot of S727-STAT1 phosphorylation in IFNγ-treated HepG2 cells. Particulars: 18 h with IFNγ, Compound 33 at 0.5, 1, 5 μM, DCA at 0.1, 1 μM. The class given is cell-based. As for the experimental part:
FIG. 4 is a western blot illustrating inhibition of phosphorylation of S727-STAT1, a known CDK8 substrate, to form pS727-STAT1. pS727-STAT1 and total STAT1 were from HepG2 cells independently treated for 18 h with interferon gamma (IFNγ) and 0.5 μM, 1 μM, or 5 μM Compound 33, or with IFNγ and 0.1 μM or 1 μM dehydrocortistatin A (“DCA”).
(In general: In western blotting, separated proteins are transferred to a membrane and probed.)
`CN(C)[C@H]1CC[C@@]2(C)C(=CCC3[C@@H]4CC[C@H](c5ccc6ccncc6c5)[C@@]4(C)CC[C@@H]32)C1` (stereo in doubt) [Compound 33, (3S,8R,9S,10R,13S,14S)-17-(isoquinolin-7-yl)-N,N,10,13-tetramethyl-2,3,4,7,8,9,10,11,12,13,14,15,16,17-tetradecahydro-1H-cyclopenta[a]phenanthren-3-amine]: the “inhibition of S727 phosphorylation (pS727-STAT1 vs total STAT1, western blot)” value is “dose-dependent inhibition”. For `CN(C)[C@H]1C[C@@]23CC[C@@]4(O2)C(=CC[C@]2(C)C(c5ccc6ccncc6c5)=CC[C@H]24)C=C3[C@@H](O)[C@@H]1O` [DCA, dehydrocortistatin A, reference compound], the “inhibition of S727 phosphorylation (pS727-STAT1 vs total STAT1, western blot)” value was “dose-dependent inhibition”.

The target in the next assay is T1, CDK8.
Assay: not given
Particulars: cited from earlier work.
Target sequence in this assay (P49336 whole entry, looked up, species assumed): as the sequence (P49336 whole entry, looked up) above
Target sequence in this assay (P24863 whole entry partner, looked up, species assumed): as the sequence (P24863 whole entry partner, looked up) above
As for `CN(C)[C@H]1C[C@@]23CC[C@@]4(O2)C(=CC[C@]2(C)C(c5ccc6ccncc6c5)=CC[C@H]24)C=C3[C@@H](O)[C@@H]1O` [DCA, dehydrocortistatin A, reference compound], the IC50 is 0.017 µM.
